Reference: patent US11331368B2, “Angiotensin receptor agonists and uses thereof” (Monash University, priority 2017, dated 2022)
Square brackets hold non-standard residues; d marks the D form. Primed or numbered codes have the meaning given here. Ends that are not written are not given here. * marks the point of attachment. Cholyl = C[C@H](CCC(=O)*)[C@H]1CC[C@H]2[C@@H]3[C@H](O)C[C@@H]4C[C@H](O)CC[C@]4(C)[C@H]3C[C@H](O)[C@]12C; βPhe = beta-form phenylalanine; βArg = beta-form arginine; βTyr = beta-form tyrosine; βPro = beta-form proline; βVal″ = beta-form valine

T1: human AT2R (Homo sapiens, UniProt P50052)
T1 construct: expressed in transfected cells
T1 sequence (P50052 1-363): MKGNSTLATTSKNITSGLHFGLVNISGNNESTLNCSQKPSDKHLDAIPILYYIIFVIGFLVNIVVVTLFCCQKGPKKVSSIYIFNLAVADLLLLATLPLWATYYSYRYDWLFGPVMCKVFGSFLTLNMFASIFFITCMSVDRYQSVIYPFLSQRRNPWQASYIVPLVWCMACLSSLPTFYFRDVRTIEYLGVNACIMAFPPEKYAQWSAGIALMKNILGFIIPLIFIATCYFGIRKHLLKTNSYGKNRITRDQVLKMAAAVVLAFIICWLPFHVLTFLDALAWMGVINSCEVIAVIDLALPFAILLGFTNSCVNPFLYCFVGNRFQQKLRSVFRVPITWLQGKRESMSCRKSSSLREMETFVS

T2: human AT1R (Homo sapiens, UniProt P30556)
T2 construct: expressed in transfected cells
T2 sequence (P30556 1-359): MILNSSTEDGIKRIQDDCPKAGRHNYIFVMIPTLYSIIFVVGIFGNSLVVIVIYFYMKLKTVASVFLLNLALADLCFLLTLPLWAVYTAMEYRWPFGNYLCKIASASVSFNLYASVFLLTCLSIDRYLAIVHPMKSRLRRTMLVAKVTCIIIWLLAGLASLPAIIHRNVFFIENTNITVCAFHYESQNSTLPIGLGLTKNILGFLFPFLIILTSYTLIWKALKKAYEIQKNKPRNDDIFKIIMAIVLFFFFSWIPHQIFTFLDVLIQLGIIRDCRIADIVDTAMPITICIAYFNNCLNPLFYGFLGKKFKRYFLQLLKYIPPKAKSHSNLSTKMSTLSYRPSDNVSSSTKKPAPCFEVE

T3: human Angiotensin II Receptor Type 2 (AT2R) (human, UniProt P50052 1-363)
T3 construct: whole, on cells; also endogenous on human cardiac fibroblasts (functional entries); also called AT2 receptor
T3 sequence (looked up): T1 sequence (P50052 1-363)

B1: βArg-Ala-8-Ang II (peptide)
peptide: D[βArg]VYIHPA-OH
notes: synthetic peptide; also called Asp-β-Arg-Val-Tyr-Ile-His-Pro-Ala
B2: Cholic Acid-βPro-Ang III (peptide)
peptide: Cholyl-RVYIH[βPro]F-OH
notes: synthetic peptide; also called Cholate-Arg-Val-Tyr-Ile-His-β-Pro-Phe
B3: D-Arg-Ang III (peptide)
peptide: [dR]VYIHPF-OH
notes: synthetic peptide; also called D-Arg-Val-Tyr-Ile-His-Pro-Phe
B4: Nic-βPro-Ang III (peptide)
peptide: nicotinamido-RVYIH[βPro]F-OH
notes: synthetic peptide; also called Nicotinamido-Arg-Val-Tyr-Ile-His-β-Pro-Phe
B5: βVal-Ala-8-Ang III (peptide)
peptide: R[βVal″]YIHPA-OH
notes: synthetic peptide; also called Arg-β-Val-Tyr-Ile-His-Pro-Ala
B6: βPhe-Ang III (peptide)
peptide: RVYIHP[βPhe]-OH
notes: synthetic peptide; also called Arg-Val-Tyr-Ile-His-Pro-β-Phe
B7: βTyr-Ang III (peptide)
peptide: RV[βTyr]IHPF-OH
notes: synthetic peptide; also called Arg-Val-β-Tyr-Ile-His-Pro-Phe
B8: βArg-Ala-8-Ang III (peptide)
peptide: [βArg]VYIHPA-OH
notes: synthetic peptide; also called β-Arg-Val-Tyr-Ile-His-Pro-Ala
B9: NAc-βPro-Trp-8-Ang III (peptide)
peptide: Ac-RVYIH[βPro]W-OH
notes: synthetic peptide; also called N-Ac-β-Pro^7-Trp^8-Ang III; N-Ac-Pro^7-Trp^8-Ang III
B10: βTyr-Trp-8-Ang III (peptide)
peptide: RV[βTyr]IHPW-OH
notes: synthetic peptide; also called β-Tyr^4-Trp^8-Ang III; β-Tyro-Trp^8-Ang III

What was measured:
[1] = tested on: male FVB/N mice on high salt diet, heart; experiment: High salt (5%) diet intervention model, heart; assay type: in vivo, mouse; conditions: for MMP-13 protein expression in heart (Western blot) / macrophage infiltration/expression in heart (F4/80) / expression of P-IκBα (marker for NFκB activation) in heart: weeks 5-8, captopril 3 mg/kg/day; for MMP-13 protein expression in heart (Western blot) / macrophage infiltration/expression in heart (F4/80): peptide 75 pmol/kg/min s.c.; for MMP-13 protein expression in heart (Western blot) / macrophage infiltration/expression in heart (F4/80) / expression of P-IκBα (marker for NFκB activation) in heart / cardiac fibrosis (picrosirius red): Cand 2 mg/kg/day; for expression of P-IκBα (marker for NFκB activation) in heart: peptides 75 pmol/kg/min s.c.; for cardiac fibrosis (picrosirius red): weeks 5-8 of high salt diet, peptides 75 pmol/kg/min s.c. mini-pump, captopril 3 mg/kg/day in drinking water
Experimental: (§1) C) In the intervention (or reversal) model, male FVB/N mice were treated with selective AT2Rs agonists after the establishment of cardiovascular disease using a high salt diet, in order to reverse cardiovascular pathologies. In some experiments, the ACE inhibitor captopril (dose) or the ARB candesartan cilexetil (dose) were given for 4 weeks in drinking water. Organs examined included heart, kidney and liver and these were compared to either untreated mice or high salt-fed mice that were treated with saline.
A high-salt diet (5% salt) model is a clinically relevant and disease-reversal model which can replicate the high salt intake by humans which is currently a growing problem in the developed countries. High salt intake induces changes in the cardiovascular system and induces remodelling and fibrosis in the heart, kidney and liver.
(§2) Mice were placed on either a normal rodent diet (0.35% NaCl) which acted as control or a high salt diet (5% sodium in food chow) for 8 weeks. After 4 weeks, mice were also treated subcutaneously (via osmotic mini-pump) with either saline or an AT2R agonist (75 pmol/kg/min subcutaneously) for 4 weeks. Mice continued to be fed a high salt diet whilst receiving these treatments.
All mice which underwent surgery were anaesthetized with Isoflurane (Isorrane) (5% induction and 2.5% maintenance) and an incision made in the midscapular region through which osmotic minipumps (Alzet model 2004, Alza Corp) were inserted for subcutaneous drug administration. The incision area was sutured with 6/0 DY silk (Dynek Pty Ltd) and antibiotic powder applied (Cicatrin, Pfizer) followed by intramuscular injection of the analgesic Cartrophen (0.1 ml of a 1.5 mg/ml stock solution; Biopharm Australia). Systolic blood pressure (SBP) was measured using non-invasive tail-cuff plethysmography apparatus (MC4000 Blood Pressure Analysis System, Hatteras Instrument Inc) before drug treatment (week 0), and then fortnightly. At the end of the 8 week treatment period mice were weighed before being killed by overdose of isoflurane inhalation and cervical dislocation.
To measure collagen deposition, frozen sections of heart, kidney or aorta (all 5 μm thickness) were air dried for 10 minutes and were brought through 3 times xylene (2 minutes each), and 3 times absolute alcohol washes before being rinsed in tap H2O for 30 seconds. Staining with an optimal concentration of picrosirius red (in this instance 0.05% picrosirius red diluted in saturated picric acid) was performed and left for an hour. Sections were then rinsed in water and differentiated in 0.01M HCl for 2 minutes, followed by dehydration via 3 times absolute alcohol washes. Then, slides were brought through 3 times xylene washes before being cover slipped according to standard histological techniques using DPX as the mounting medium. Images were taken under ×20 magnification, using bright field (Olympus, BX51) and circularized polarized light microscopy (DM IRB, Leica) while percentage of positive interstitial collagen staining per total field of view was quantified using ImageJ 1.46 software (Java, NIH), and averaged out from a total of eight views as the final percentage collagen content in a particular animal.
Immunostaining was performed on 5 μm thick transverse frozen heart sections. These sections were air dried and fixed in ice-cold acetone for approximately 15 minutes before washing with 0.01M PBS buffer (3×10 minutes). Sections were then incubated with 10% goat serum in 0.01M PBS for 30 minutes to reduce non-specific binding. If the primary antibody is raised in goat, this pre-blocked medium is substituted with 5% BSA in PBS and Triton-X. Next, blocking buffers were removed and the primary antibody to respective markers were applied overnight at room temperature based on the following dilution and origin of the antibodies: α-SMA (1:500, Abcam), Vimentin (1:500, Santa Cruz), P-IκBα (1:200, Cell Signalling), F4/80 macrophage (1:100, Serotec). […]

[2] = tested on: male FVB/N mice on high salt diet, liver; experiment: High salt (5%) diet intervention model, liver; assay type: in vivo, mouse; conditions: weeks 5-8; peptides 75 pmol/kg/min s.c.; Cand 2 mg/kg/day, captopril 3 mg/kg/day
Experimental: as §1, §2
Liver sections used either picrosirius red staining or Masson's trichome staining as described above. Higher concentrations of picrosirius red were often used under polarized light microscopy. The liver was removed and sectioned with half of the liver placed in 10% formalin and the rest frozen in liquid nitrogen before being stored in ˜80° C. freezer for future use. Formalin fixed, paraffin embedded livers were sectioned at thickness of 4 μm and were stained with Masson's trichrome according to standard procedures for analysis of liver fibrosis. […] Sections were re-fixed in Bouin's solution for 1 hour at 56° C. to improve staining quality then rinsed in running tap water for 5-10 minutes to remove yellow colour. Following this, sections were stained in Weigert's iron hematoxylin working solution for 10 minutes. Rinsed in running warm tap water for 10 minutes. Washed in distilled water. Stained in Biebrich scarlet-acid fuchsin solution for 10-15 minutes.
Washed in distilled water. Differentiated in phosphomolybdic-phosphotungstic acid solution for 10-15 minutes or until collagen was no longer red. Sections were transferred directly (without rinse) to aniline blue solution and stained for 5-10 minutes. Rinsed briefly in distilled water and differentiated in 1% acetic acid solution for 2-5 minutes. Washed in distilled water. […] Mounted with DPX mounting medium. Quantification of liver fibrosis was performed using images captured with the Aperio scanner (Monash Histology Platform, Monash University), with ×5 magnification. Each liver section had 5 different fields of view photographed at this magnification. Percentage of interstitial and perivascular collagen was analysed and quantified using ImageJ 1.48 software (Java, NIH), and the percentage from 5 random fields of view were averaged for final percentage of collagen for that particular animal. All analysis of collagen expression was conducted in a blinded fashion.

[3] = target: T1, human AT2R; experiment: Competition radioligand binding (125I-Sar1-Ile8-AngII) in AT2R-transfected HEK-293 cells; conditions: for Fold AT2R selectivity: AT2R over AT1R, Table 3
Experimental: (§3) This will lead to the generation of IC50 values that determine the relative ability of test compounds to interact with both Angiotensin receptors.
(§4) Cells were grown to approximately 80% confluence before being re-plated into 48 well plates at 1×10^5 cells/well and grown for 48 hours at 37° C. for a whole cell competition binding assay. [125I]-Sar1Ile8Ang II at 50,000 cpm, incubated for 45 minutes at 37° C., in the absence or presence of unlabeled ligands, prepared in binding buffer (DMEM, 0.1% BSA), were used in the competition assays at concentrations ranging from 1 μM to 10 μM. For each experiment, each ligand concentration was tested in duplicate or triplicate, and each experiment was repeated at least 3 separate times. […] The ability of each ligand to inhibit specific binding of [125I]-Sar1Ile8Ang II was measured on a gamma counter with all counts corrected for NSB.

[4] = target: T2, human AT1R; experiment: Competition radioligand binding (125I-Sar1-Ile8-AngII) in AT1R-transfected HEK-293 cells
Experimental: as §3, §4

[5] = target: T3, human Angiotensin II Receptor Type 2 …; experiment: competition radioligand binding on HEK-293 cells with AT2R; competitor [125I]-Sar1Ile8Ang II
Experimental: For each experiment, each ligand concentration was tested in duplicate or triplicate, and each experiment was repeated at least 3 separate times.

[6] = PD123319 1 mg/kg/day s.c. with β-Pro7-Ang III or D-Arg2-β-Pro7-Ang III

Molecule | Fold AT2R selectivity [3] | IC50 [5] | further results
CCOc1nc2cccc(C(=O)OC(C)OC(=O)OC3CCCCC3)c2n1Cc1ccc(-c2ccccc2-c2nnn[nH]2)cc1 (centres unmarked) [candesartan cilexetil, reference compound] |  |  | MMP-13 protein expression in heart (Western blot) [1]: Neither captopril nor Cand altered MMP-13 levels; macrophage infiltration/expression in heart (F4/80) [1]: reversed by all agents; expression of P-IκBα (marker for NFκB activation) in heart [1]: reversed only by β-Ile^5-Ang II; cardiac fibrosis (picrosirius red) [1]: did not significantly reduce fibrosis
C[C@H](CS)C(=O)N1CCC[C@H]1C(=O)O [captopril, reference compound] |  |  | liver fibrosis (picrosirius red, polarized light) [2]: similarly inhibited the pro-fibrotic effects of high salt in the liver; liver steatosis (Oil Red O) [2]: significantly reduced excess lipid accumulation; MMP-13 protein expression in heart (Western blot) [1]: Neither captopril nor Cand altered MMP-13 levels; macrophage infiltration/expression in heart (F4/80) [1]: reversed by all agents; expression of P-IκBα (marker for NFκB activation) in heart [1]: reversed only by β-Ile^5-Ang II; cardiac fibrosis (picrosirius red) [1]: also reversed fibrosis
Nicotinamido-Arg-Val-Tyr-Ile-His-β-Pro-Trp [Nic-βPro-Trp-8-Ang III] | >15,000 fold |  | 
CC[C@H](C)[C@H](NC(=O)[C@H](Cc1ccc(O)cc1)NC(=O)[C@@H](NC(=O)[C@H](N)CCCNC(=N)N)C(C)C)C(=O)N[C@@H](Cc1c[nH]cn1)C(=O)N1CCC[C@H]1C(=O)N[C@@H](Cc1ccccc1)C(=O)O [D-Arg-Ang III, D-Arg-Val-Tyr-Ile-His-Pro-Phe] | 400 fold |  | IC50 ([4]; 125I-Sar1-Ile8-AngII): > 10000 nM
Tetrazole-CONH-Arg-Val-Tyr-Ile-His-β-Pro-Trp [Tet-βPro-Trp-8-Ang III] | >275,000 fold |  | 
CC[C@H](C)[C@H](NC(=O)C[C@H](Cc1ccc(O)cc1)NC(=O)[C@@H](NC(=O)[C@@H](N)CCCNC(=N)N)C(C)C)C(=O)N[C@@H](Cc1c[nH]cn1)C(=O)N1CCC[C@H]1C(=O)N[C@@H](Cc1c[nH]c2ccccc12)C(=O)O [βTyr-Trp-8-Ang III, Arg-Val-β-Tyr-Ile-His-Pro-Trp] |  |  | binding at AT2R (displacement of 125I-Sar1-Ile8-AngII), in words ([3]; transfected HEK-293 cells): high affinity; binding at AT1R (displacement of 125I-Sar1-Ile8-AngII), in words [4]: bind poorly
Cc1cc(Cn2cnc3c2C[C@@H](C(=O)O)N(C(=O)C(c2ccccc2)c2ccccc2)C3)ccc1N(C)C [PD123319, reference compound] |  |  | effect of AT2R antagonist co-treatment on peptide anti-fibrotic effect (cardiac fibrosis, picrosirius red) [1, 6]: attenuated the anti-fibrotic effects of these peptides; effect of AT2R antagonist co-treatment on peptide inhibition of myofibroblast differentiation (α-SMA) [1, 6]: attenuated the inhibitory effects of these peptides
β-Arg-Val-Tyr-Ile-His-Pro-Trp [βArg-Trp-8-Ang III] | 1854 fold |  | 
Tetrazole-CONH- Arg-Val-Tyr-Ile-His- β-Pro-Phe [Tet-βPro-Ang III] | >60,000 fold |  | 
Arg-Val-Tyr-β-Ile-His-Pro-Trp [βILe-Trp-8-Ang III] | >2500 fold |  | 
Arg-Val-Tyr-Ile-His-β-Pro-Ala [βPro-Ala-8-Ang III] | 200 fold |  | 
B1 |  | 12.5 nM | 
B2 |  | 0.05 nM | 
B3 |  | 25 nM | 
B4 |  | 0.12 nM | 
B5 |  | 8.1 nM | 
B6 |  | 20.3 nM | 
B7 |  | 1.82 nM | 
B8 |  | 6.5 nM | 
B9 |  | 0.34 nM | 
B10 |  | 0.384 nM | 
